Patent US9228097B2, “Phase change inks” (Xerox Corporation, priority 2013, dated 2016)

Key:
[1] = Solubility testing in polyethylene wax (POLYWAX 655); assay type: physicochemical; conditions: 1 g Solvent Black 3 or 2 g distearyl derivative in 50 g POLYWAX 655, 120° C. oil bath, stirred 3 h, then 1 h without stirring
Procedure: [drawing 41] molecular weight 892, were compared for solubility in polyethylene wax, a predominant component in phase change inks. 1 g of the Solvent Black 3 and 2 g of the distearyl derivative (because its molecular weight was about twice that of Solvent Black 3) were each dissolved in 50 g portions of POLYWAX 655 (Baker Petrolite) in 100 mL beakers equipped with magnetic stir bars. The solutions were placed in 120° C. oil baths and allowed to stir for 3 h, followed by cessation of stirring for 1 h, after which the solutions were poured into aluminum tins.

[2] = K-proofer print of the wax compositions on paper (darkness of the images as a sign of dissolved dye); assay type: physicochemical; conditions: polyethylene wax compositions of the solubility test applied to paper with RK Print-Coat K-proofer

Row | darkness (optical density) of images versus composition containing Solvent Black 3 [2] | SMILES | solubility in polyethylene wax (solids on bottom of beaker) [1]
1 | – | CC1(C)Nc2cccc3c(/N=N/c4ccc(/N=N/c5ccccc5)c5ccccc45)ccc(c23)N1 [Solvent Black 3, reference compound] | a substantial amount of the Solvent Black 3 appeared on the bottom of its beaker
2 | considerably darker | CCCCCCCCCCCCCCCCCC1(CCCCCCCCCCCCCCCCC)Nc2cccc3c(/N=N/c4ccc(/N=N/c5ccccc5)c5ccccc45)ccc(c23)N1 [distearyl derivative] | almost no solids appeared on the bottom of the beaker
